In patent US6087358A (priority 1997, dated 2000):
Values after ≈ are worked out from the molar mass of the structure shown. Like-named read-outs stand apart in the source and are kept apart here.

Key:
Helicobacter pylori = assay: In vitro inhibition of Helicobacter pylori (broth microdilution MIC); conditions: Helicobacter pylori
Cryptosporidium parvum = assay: Inhibition of Cryptosporidium parvum (ELISA, infected HCT-8 monolayers); format: cell-based
Method: Susceptibility testing against Cryptosporidium was performed according to published procedures (K. Woods, M. Nesterenko, S. Upton, "Development of a microtiter ELISA to quantify development of Cryptosporidium parvum in vitro," FEMS Microbiology Letters, 128:89-94 (1995).
Compounds were solubilized to a concentration of 100 mg/mL in 100% DMSO. DMSO solutions of test compounds were added to the test wells of a microplate at a volume that produced a final concentration of DMSO of 0.2%. Monolayers of human ileocecal adenocarcinoma cells (HCT-8) were prepared by growth in RPMI 1640 medium in 96-Well tissue culture trays for 24 h. Oocysts of C. parvum were allowed to excyst in 10% bleach for 10 min prior to use. Monolayers were then infected with 2-3×10^4 oocysts/well and incubated in the presence or absence of compound for 48 h at 35° C. in 5% CO2 and 95% humidity. Background consisted of wells containing killed oocysts (freeze thaw cycle following 30 sec exposure to liquid nitrogen). Growth control wells were infected with 2-3×10^4 oocysts/well in the absence of test compounds. At the end of incubation, wells were washed and fixed by adding 100 uL of 4% formalin in phosphate buffered saline (pH 7.3) per well for 2 h. After blocking with 1% bovine serum albumin, and 0.002% Tween 20, 50 uL of rat anti-Cryptosporidium membrane protein antiserum was added. After 30 min, wells were washed in PBS and 50 uL of secondary antibody (goat anti-rat antibody conjugated with horseradish peroxidase) was added. After 20-30 min, wells were washed again in PBS and 50 uL of 3,3',5,5'-tetramethylbenzidine solution was added. Plates were allowed to develop for 10-15 min and the optical density was read at 630 nm. Percent inhibition was calculated by comparing the optical density of the drug treated group to that of the untreated control.

[1] = test system: Helicobacter pylori Strain 4187E; assay: In vivo activity against Helicobacter pylori strain 4187E in mice; set-up: species or system in outbred female white mice; conditions: oral gavage, four days
Description: Outbred female white mice (20 grams) were infected by oral gavage with 10^7 -10^8 colony forming units of H. pylori strain 4187E (originally isolated from a patient with a duodenal ulcer). […] Treatment continued for four days. Clarithromycin, administered at the same concentration and for the same duration, was included as a positive control. One group of animals also received an equal volume of formulation vehicle alone, to provide a negative control.
Five days after cessation of treatment, all animals were sacrificed, the stomachs were removed, opened, and the contents washed out. The entire mucosal surface was then spread evenly over the surface of an agar plate containing antibiotics appropriate for the prevention of growth of microorganisms other than Helicobacter spp. After seven days incubation under microaeropilic conditions at 37° C., culture plates were evaluated for bacterial growth.

[2] = test system: M. tuberculosis H37 Rv in human THP-1 macrophages; assay: In vitro activity against M. tuberculosis in human macrophages (luciferase bioluminescence); format: cell-based, Mycobacterium tuberculosis, in human THP-1 cells
[3] = test system: Mycobacterium tuberculosis (rMTB); assay: In vivo antimycobacterial activity against M. tuberculosis (rMTB) in spleens of mice; set-up: species or system Mycobacterium tuberculosis Erdman, in female BALB/c mice; conditions: 25 mg/kg daily oral gavage, CM-2, 10 days, control 422,866 (PA-824, 636, 1297) or 362,274 (others)
[4] = test system: Mycobacterium tuberculosis (rMTB); assay: In vivo antimycobacterial activity against M. tuberculosis (rMTB) in lungs of mice; set-up: species or system Mycobacterium tuberculosis Erdman, in female BALB/c mice; conditions: 25 mg/kg daily oral gavage, CM-2, 10 days, control 117,258 (PA-824, 636, 1297) or 22,751 (others)
Helicobacter felis = assay: In vivo activity against Helicobacter felis in mice (urease test of stomach biopsy); set-up: species or system in female CD-1 mice; conditions: 50 mg/kg three times daily oral gavage, CM-2, four days; vehicle and untreated 100
Method: Female CD-1 mice weighing 30 grams were infected by oral gavage with 10^8 -10^9 colony forming units of H. felis. This infection process was repeated two, and four days, thereafter. Colonization of the stomach was allowed to occur over a seven day period. Animals were segregated into groups of five, and were treated three times daily by oral gavage with 50 mg/kg of test drugs prepared in the CM-2 formulation vehicle (Example 52). Treatment continued for four days. One group of animals received an equal volume of formulation vehicle alone, to ensure that the vehicle had no effect on the Helicobacter infection. A separate untreated control group was also included.
All animals were then sacrificed, the stomachs were removed, opened, and the contents washed out. A five millimeter diameter biopsy was removed, and transferred to a urease test solution containing a pH-sensitive dye, which was then incubated at 37° C. incubator for 24 hours. A blue or purple coloration in this test solution signifies a positive reaction, indicating the continued presence of viable Helicobacter bacteria; a negative result is indicated by a yellow coloration. Viable Helicobacter bacteria produce a urease enzyme which converts urea, of which there is an abundant supply in the stomach (from saliva and gastric juices), into bicarbonate and ammonia, which are strong bases. This mechanism is considered to provide conditions more amenable to the survival of Helicobacter in the otherwise acidic conditions prevalent in the stomach.

O=[N+]([O-])c1cn2c(n1)OC[C@@H](OCc1ccc(OC(F)(F)F)cc1)C2 [PA-824, 3S 4-(Trifluromethoxy)benzyloxy-6-nitro-2H-3,4-dihydro-[2-1b]imidazopyran]
MIC (Helicobacter pylori; 72 h, read-out: MIC against Helicobacter pylori, strain 17 (Table 5A)): > 25 µg/mL | MIC (Helicobacter pylori; 72 h, read-out: MIC against Helicobacter pylori, strain 19 (Table 5A)): 0.4 µg/mL (≈ 1.11 µM) | MIC (Helicobacter pylori; 72 h, read-out: MIC against Helicobacter pylori, strain 20 (Table 5A)): 0.2 µg/mL (≈ 0.557 µM) | MIC (Helicobacter pylori; 72 h, read-out: MIC against Helicobacter pylori, strain 40 (Table 5A)): 0.4 µg/mL (≈ 1.11 µM) | MIC (Helicobacter pylori; 72 h, read-out: MIC against Helicobacter pylori, strain 43 (Table 5A)): 0.8 µg/mL (≈ 2.23 µM) | MIC (Helicobacter pylori; 72 h, read-out: MIC against Helicobacter pylori, strain 76 (Table 5A)): 12.5 µg/mL (≈ 34.8 µM) | MIC (Helicobacter pylori; ATCC43504, 72 h, read-out: MIC against Helicobacter pylori, strain ATCC 43504 (Table 5A)): > 25 µg/mL | dose-related response (Cryptosporidium parvum; C. parvum growth): A clear dose-related response | IC50 (Cryptosporidium parvum; Cryptosporidium parvum, HCT-8): 25 µg/mL (≈ 69.6 µM) | inhibition at 5 µg/mL (Cryptosporidium parvum; Cryptosporidium parvum, HCT-8, 5 μg/mL, 48 h, read-out: Percent Inhibition of C. parvum): 3.1% | inhibition at 10 µg/mL (Cryptosporidium parvum; Cryptosporidium parvum, HCT-8, 10 μg/mL, 48 h, read-out: Percent Inhibition of C. parvum): 17% | inhibition at 20 µg/mL (Cryptosporidium parvum; Cryptosporidium parvum, HCT-8, 20 μg/mL, 48 h, read-out: Percent Inhibition of C. parvum): 40% | inhibition at 25 µg/mL (Cryptosporidium parvum; Cryptosporidium parvum, HCT-8, 25 μg/mL, 48 h, read-out: Percent Inhibition of C. parvum): 52% | inhibition at 50 µg/mL (Cryptosporidium parvum; Cryptosporidium parvum, HCT-8, 50 μg/mL, 48 h, read-out: Percent Inhibition of C. parvum): 93% | inhibition at 100 µg/mL (Cryptosporidium parvum; Cryptosporidium parvum, HCT-8, 100 μg/mL, 48 h, read-out: Percent Inhibition of C. parvum): 87% | % Eradication ([1]; once daily 25 mg/kg): 0% | % Eradication ([1]; twice daily 5 mg/kg): 10% | % Eradication ([1]; twice daily 50 mg/kg): 100% | RLU values ([2]; 0.06 μg/mL, day 1): 25856 RLU | RLU values ([2]; 0.06 μg/mL, day 2): 93959 RLU | RLU values ([2]; 0.06 μg/mL, day 3): 109301 RLU | RLU values ([2]; 0.06 μg/mL, day 4): 118318 RLU | RLU values ([2]; 0.06 μg/mL, day 7): 138792 RLU | RLU values ([2]; 0.13 μg/mL, day 1): 16904 RLU | RLU values ([2]; 0.13 μg/mL, day 2): 40573 RLU | RLU values ([2]; 0.13 μg/mL, day 3): 29162 RLU | RLU values ([2]; 0.13 μg/mL, day 4): 27802 RLU | RLU values ([2]; 0.13 μg/mL, day 7): 28699 RLU | RLU values ([2]; 0.25 μg/mL, day 1): 15814 RLU | RLU values ([2]; 0.25 μg/mL, day 2): 18064 RLU | RLU values ([2]; 0.25 μg/mL, day 3): 13413 RLU | RLU values ([2]; 0.25 μg/mL, day 4): 8684 RLU | RLU values ([2]; 0.25 μg/mL, day 7): 6437 RLU | RLU values ([2]; 0.5 μg/mL, day 1): 10021 RLU | RLU values ([2]; 0.5 μg/mL, day 2): 9610 RLU | RLU values ([2]; 0.5 μg/mL, day 3): 6579 RLU | RLU values ([2]; 0.5 μg/mL, day 4): 5068 RLU | RLU values ([2]; 0.5 μg/mL, day 7): 2957 RLU | RLU values ([2]; 1.0 μg/mL, day 1): 8197 RLU | RLU values ([2]; 1.0 μg/mL, day 2): 5588 RLU | RLU values ([2]; 1.0 μg/mL, day 3): 3950 RLU | RLU values ([2]; 1.0 μg/mL, day 4): 2686 RLU | RLU values ([2]; 1.0 μg/mL, day 7): 1986 RLU | RLU values ([2]; 2.0 μg/mL, day 1): 4571 RLU | RLU values ([2]; 2.0 μg/mL, day 2): 3833 RLU | RLU values ([2]; 2.0 μg/mL, day 3): 2567 RLU | RLU values ([2]; 2.0 μg/mL, day 4): 1507 RLU | RLU values ([2]; 2.0 μg/mL, day 7): 1217 RLU | minimal effective concentration ([2]; Mycobacterium tuberculosis, H37RV, human THP-1 macrophages, read-out: concentrations sufficient to prevent intracellular growth of M. tuberculosis): ≥ 0.25 µg/mL | dose-related response ([2]; concentrations up to 2.0 μg/ml): A clear dose-related response | Average RLUs, M. tuberculosis (rMTB) in spleens [3]: 53,540 RLUs | Average RLUs, M. tuberculosis (rMTB) in lungs [4]: 2,496 RLUs | % Survival (Helicobacter felis): 40%
